Measurements published in ChEMBL document CHEMBL5053508, “Optimization of Beclin 1-Targeting Stapled Peptides by Staple Scanning Leads to Enhanced Antiproliferative Potency in Cancer Cells” (J Med Chem, 2021).
Calls of active or inactive are those of the source. The calls are words filed in the database; no cut-off is given here.

Experiments:
SK-BR-3 [1] = assay: Induction of apoptosis in human SK-BR-3 cells assessed as late apoptotic cells at 10 uM incubated for 24 hrs by flow cytometry with Annexin V-FITC/propidium iodide staining based flow cytometry assay (Rvb= 2.2%); format: functional
SK-BR-3 [2] = assay: Induction of apoptosis in human SK-BR-3 cells assessed as late apoptotic cells at 40 uM incubated for 24 hrs by flow cytometry with Annexin V-FITC/propidium iodide staining based flow cytometry assay (Rvb= 2.2%); format: functional
SK-BR-3 [3] = assay: Induction of apoptosis in human SK-BR-3 cells assessed as dead cells at 5 uM measured after 24 hrs by annexin V-FITC/PI staining based flow cytometry analysis (Rvb= 5.0%); format: functional
SK-BR-3 [4] = assay: Induction of apoptosis in human SK-BR-3 cells assessed as live cells at 40 uM measured after 24 hrs by annexin V-FITC/PI staining based flow cytometry analysis (Rvb= 90.6%); format: functional
SK-BR-3 [5] = assay: Induction of apoptosis in human SK-BR-3 cells assessed as early apoptotic cells at 5 uM measured after 24 hrs by annexin V-FITC/PI staining based flow cytometry analysis (Rvb= 2.2%); format: functional
SK-BR-3 [6] = assay: Induction of apoptosis […] in human SK-BR-3 cells assessed as late apoptotic cells at 5 uM incubated for 24 hrs by flow cytometry with Annexin V-FITC/propidium iodide staining based flow cytometry analysis (Rvb= 2.2%); format: functional
SK-BR-3 [7] = assay: Induction of apoptosis in human SK-BR-3 cells assessed as dead cells at 10 uM measured after 24 hrs by annexin V-FITC/PI staining based flow cytometry analysis (Rvb= 5.0%); format: functional
SK-BR-3 [8] = assay: Induction of apoptosis in human SK-BR-3 cells assessed as live cells at 20 uM measured after 24 hrs by annexin V-FITC/PI staining based flow cytometry analysis (Rvb= 90.6%); format: functional
SK-BR-3 [9] = assay: Induction of apoptosis in human SK-BR-3 cells assessed as live cells at 10 uM measured after 24 hrs by annexin V-FITC/PI staining based flow cytometry analysis (Rvb= 90.6%); format: functional
SK-BR-3 [10] = assay: Induction of apoptosis in human SK-BR-3 cells assessed as dead cells at 40 uM measured after 24 hrs by annexin V-FITC/PI staining based flow cytometry analysis (Rvb= 5.0%); format: functional
SK-BR-3 [11] = assay: Induction of apoptosis in human SK-BR-3 cells assessed as early apoptotic cells at 20 uM measured after 24 hrs by annexin V-FITC/PI staining based flow cytometry analysis (Rvb= 2.2%); format: functional
SK-BR-3 [12] = assay: Antiproliferative activity against human SK-BR-3 cells assessed as reduction in cell growth at 20 uM incubated for 5 days by trypan blue exclusion assay relative to control; format: functional; design: scale not given: the % may be the effect or the level left; details: time 5 day
SK-BR-3 [13] = assay: Induction of apoptosis in human SK-BR-3 cells assessed as early apoptotic cells at 10 uM measured after 24 hrs by annexin V-FITC/PI staining based flow cytometry analysis (Rvb= 2.2%); format: functional
SK-BR-3 [14] = assay: Induction of apoptosis in human SK-BR-3 cells assessed as late apoptotic cells at 20 uM incubated for 24 hrs by flow cytometry with Annexin V-FITC/propidium iodide staining based flow cytometry assay (Rvb= 2.2%); format: functional
SK-BR-3 [15] = assay: Induction of apoptosis in human SK-BR-3 cells assessed as live cells at 5 uM measured after 24 hrs by annexin V-FITC/PI staining based flow cytometry analysis (Rvb= 90.6%); format: functional
SK-BR-3 [16] = assay: Induction of apoptosis in human SK-BR-3 cells assessed as early apoptotic cells at 40 uM measured after 24 hrs by annexin V-FITC/PI staining based flow cytometry analysis (Rvb= 2.2%); format: functional
SK-BR-3 [17] = assay: Induction of apoptosis in human SK-BR-3 cells assessed as dead cells at 20 uM measured after 24 hrs by annexin V-FITC/PI staining based flow cytometry analysis (Rvb= 5.0%); format: functional
SK-BR-3 [18] = assay: Induction of apoptosis in human SK-BR-3 cells assessed as increase in cleaved caspase-3 level at 10 uM incubated for 24 hrs by western blot analysis; format: functional, cell-based
[19] = target: Receptor tyrosine-protein kinase erbB-2 (Homo sapiens) (UniProt P04626); assay: Induction of endolysosomal trafficking of HER2 in human SK-BR-3 cells assessed as EGF-induced degradation of HER2 at 2 uM measured after 24 hrs post-EGF stimulation by western blot analysis relative to control; format: cell-based
Receptor tyrosine-protein kinase erbB-2 (Homo sapiens), sequence (P04626 whole entry): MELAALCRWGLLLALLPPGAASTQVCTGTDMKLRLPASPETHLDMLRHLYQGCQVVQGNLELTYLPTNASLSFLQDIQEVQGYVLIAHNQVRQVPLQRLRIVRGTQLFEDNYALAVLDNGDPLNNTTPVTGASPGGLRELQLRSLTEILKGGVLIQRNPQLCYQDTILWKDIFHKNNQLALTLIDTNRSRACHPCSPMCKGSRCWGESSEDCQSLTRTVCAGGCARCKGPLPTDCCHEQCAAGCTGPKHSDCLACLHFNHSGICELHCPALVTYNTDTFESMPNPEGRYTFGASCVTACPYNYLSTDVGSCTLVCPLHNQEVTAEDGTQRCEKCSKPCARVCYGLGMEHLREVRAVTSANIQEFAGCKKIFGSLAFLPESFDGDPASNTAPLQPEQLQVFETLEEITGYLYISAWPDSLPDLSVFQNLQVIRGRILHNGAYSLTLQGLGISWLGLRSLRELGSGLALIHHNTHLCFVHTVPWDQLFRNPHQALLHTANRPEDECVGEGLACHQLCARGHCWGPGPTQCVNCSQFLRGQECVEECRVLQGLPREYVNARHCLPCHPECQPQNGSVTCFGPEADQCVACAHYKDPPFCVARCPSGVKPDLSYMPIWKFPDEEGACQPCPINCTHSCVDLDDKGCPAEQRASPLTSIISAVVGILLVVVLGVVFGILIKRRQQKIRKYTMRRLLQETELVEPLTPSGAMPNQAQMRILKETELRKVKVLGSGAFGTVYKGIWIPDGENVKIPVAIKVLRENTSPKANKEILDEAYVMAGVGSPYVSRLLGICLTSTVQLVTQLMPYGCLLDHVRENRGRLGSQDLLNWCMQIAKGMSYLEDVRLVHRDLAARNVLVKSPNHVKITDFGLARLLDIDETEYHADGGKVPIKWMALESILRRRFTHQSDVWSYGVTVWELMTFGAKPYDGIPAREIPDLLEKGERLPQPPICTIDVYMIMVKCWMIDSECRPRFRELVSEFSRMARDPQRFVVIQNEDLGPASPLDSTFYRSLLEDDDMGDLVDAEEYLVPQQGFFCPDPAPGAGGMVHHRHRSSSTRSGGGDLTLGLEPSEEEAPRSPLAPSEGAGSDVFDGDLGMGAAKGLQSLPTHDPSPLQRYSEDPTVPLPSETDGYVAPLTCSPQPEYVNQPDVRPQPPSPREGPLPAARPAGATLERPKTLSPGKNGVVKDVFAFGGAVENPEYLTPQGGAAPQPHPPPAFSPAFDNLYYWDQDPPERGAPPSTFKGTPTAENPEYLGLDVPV

[20] = target: Epidermal growth factor receptor (Homo sapiens) (UniProt P00533); assay: Induction of endolysosomal trafficking of EGFR in human SK-BR-3 cells assessed as EGF-induced degradation of EGFR at 2 uM measured after 15 hrs post-EGF stimulation by western blot analysis relative to control; format: cell-based
Epidermal growth factor receptor (Homo sapiens), sequence (P00533 whole entry): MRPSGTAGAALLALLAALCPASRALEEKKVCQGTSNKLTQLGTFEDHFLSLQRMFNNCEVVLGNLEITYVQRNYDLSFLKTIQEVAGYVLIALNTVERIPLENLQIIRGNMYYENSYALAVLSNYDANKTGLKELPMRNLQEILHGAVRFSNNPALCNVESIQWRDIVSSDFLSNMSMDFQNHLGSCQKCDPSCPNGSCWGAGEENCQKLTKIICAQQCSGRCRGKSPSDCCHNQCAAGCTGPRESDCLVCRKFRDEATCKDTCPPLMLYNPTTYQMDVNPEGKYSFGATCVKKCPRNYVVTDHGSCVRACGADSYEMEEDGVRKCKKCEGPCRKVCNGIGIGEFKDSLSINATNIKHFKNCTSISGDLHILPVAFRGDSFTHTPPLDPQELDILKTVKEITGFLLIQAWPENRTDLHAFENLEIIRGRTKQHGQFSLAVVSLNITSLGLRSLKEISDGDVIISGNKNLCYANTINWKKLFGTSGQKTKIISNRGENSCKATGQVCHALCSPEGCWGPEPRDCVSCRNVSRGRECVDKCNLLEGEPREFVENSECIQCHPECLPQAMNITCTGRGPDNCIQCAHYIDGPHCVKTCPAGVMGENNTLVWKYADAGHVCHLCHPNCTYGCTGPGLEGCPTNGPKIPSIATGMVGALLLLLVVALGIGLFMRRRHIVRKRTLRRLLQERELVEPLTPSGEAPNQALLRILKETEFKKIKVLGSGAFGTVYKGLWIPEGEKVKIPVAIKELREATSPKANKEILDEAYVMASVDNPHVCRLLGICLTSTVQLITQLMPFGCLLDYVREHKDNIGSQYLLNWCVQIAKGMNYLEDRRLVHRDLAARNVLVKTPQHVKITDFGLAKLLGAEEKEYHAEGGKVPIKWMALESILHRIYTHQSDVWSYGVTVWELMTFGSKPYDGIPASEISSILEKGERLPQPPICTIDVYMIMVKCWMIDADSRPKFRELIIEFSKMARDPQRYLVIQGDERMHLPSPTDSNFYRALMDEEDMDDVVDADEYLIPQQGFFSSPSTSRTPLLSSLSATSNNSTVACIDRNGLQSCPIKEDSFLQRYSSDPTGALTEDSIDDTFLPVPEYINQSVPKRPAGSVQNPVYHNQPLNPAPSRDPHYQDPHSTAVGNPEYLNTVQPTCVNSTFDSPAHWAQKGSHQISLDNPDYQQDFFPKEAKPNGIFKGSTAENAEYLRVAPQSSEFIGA

[21] = target: Receptor tyrosine-protein kinase erbB-2 (Homo sapiens) (UniProt P04626); assay: Induction of endolysosomal trafficking of HER2 in human SK-BR-3 cells assessed as EGF-induced degradation of HER2 at 2 uM measured after 15 hrs post-EGF stimulation by western blot analysis relative to control; format: cell-based
SK-BR-3 [22] = assay: Antiproliferative activity against human SK-BR-3 cells assessed as reduction of cell growth measured after 24 hrs by trypan blue exclusion assay; details: SK-BR-3, 24 h
SK-BR-3 [23] = assay: Induction of apoptosis in human SK-BR-3 cells assessed as increase in cell death at 10 uM in presence of Z-VAD-FMK measured after 24 hrs by trypan blue exclusion assay; format: functional, cell-based
HEK293T [24] = assay: Induction of FLAG tagged Beclin 1- Atg14L interaction in HEK293T cells assessed as increase in endogenous beclin 1 pull down at 30 uM by coimmunoprecipitation assay; format: cell-based; details: Homo sapiens
HEK-293T [25] = assay: Induction of autophagy in human HEK293T cells assessed as increase in p62 protein level at 10 to 20 uM in presence of chloroquine measured after 3 hrs by western blot analysis; format: functional, cell-based; details: dose 10-20 µM
SK-BR-3 [26] = assay: Induction of apoptosis in human SK-BR-3 cells assessed as increase in cleaved PARP level at 10 uM incubated for 24 hrs by western blot analysis; format: functional, cell-based
SK-BR-3 [27] = assay: Antiproliferative activity against human SK-BR-3 cells assessed as reduction in cell growth incubated for 5 days by trypan blue exclusion assay; format: functional, cell-based; details: time 5.0 day
HEK-293T [28] = assay: Induction of autophagy in HEK293T cells assessed as increase in LC3-II protein level at 10 to 20 uM incubated for 3 hrs by western blot analysis; format: functional, cell-based; details: Homo sapiens, dose 10-20 µM
Beclin-1 [29] = target: T1, Beclin-1 (Homo sapiens, UniProt Q14457); assay: Inhibition of FLAG-tagged Beclin 1 self-association in HEK293T cells cotransfected with GFP assessed as reduction in beclin 1- GFP pull down by FLAG-beclin 1 by coimmunoprecipitation assay; format: cell-based
T1 sequence (Q14457 whole entry, the tested form may be a part): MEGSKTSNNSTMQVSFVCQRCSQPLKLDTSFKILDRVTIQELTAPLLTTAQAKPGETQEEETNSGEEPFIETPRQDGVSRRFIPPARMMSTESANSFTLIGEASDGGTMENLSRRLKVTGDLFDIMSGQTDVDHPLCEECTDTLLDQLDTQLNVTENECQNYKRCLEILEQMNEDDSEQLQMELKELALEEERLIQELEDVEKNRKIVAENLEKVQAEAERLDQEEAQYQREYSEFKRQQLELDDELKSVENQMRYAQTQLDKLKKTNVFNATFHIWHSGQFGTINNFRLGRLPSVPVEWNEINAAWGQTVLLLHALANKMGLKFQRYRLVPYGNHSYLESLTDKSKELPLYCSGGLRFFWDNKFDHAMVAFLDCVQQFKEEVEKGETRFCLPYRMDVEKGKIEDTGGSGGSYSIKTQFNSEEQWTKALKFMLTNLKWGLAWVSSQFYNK

Beclin-1 [30] = target: T1, Beclin-1; assay: Binding affinity to Beclin 1 coiled coil domain (unknown origin) by isothermal titration calorimetry assay
HEK-293T [31] = assay: Induction of autophagy in human HEK293T cells assessed as increase in p62 protein level at 10 to 20 uM measured after 3 hrs by western blot analysis; format: functional, cell-based; details: dose 10-20 µM
HEK293T [32] = assay: Induction of Beclin 1- FLAG tagged UVRAG interaction in HEK293T cells assessed as endogenous beclin 1 pull down at 10 uM by coimmunoprecipitation assay; format: cell-based; details: Homo sapiens
HEK-293T [33] = assay: Induction of autophagy in human HEK293T cells assessed as increase in LC3-II protein level at 10 to 20 uM in presence of chloroquine measured after 3 hrs by western blot analysis; format: functional, cell-based; details: dose 10-20 µM
HEK-293T [34] = assay: Cytotoxicity against HEK293T cells assessed as reduction in cell viability at 10 to 20 uM measured after 24 hrs by trypan blue exclusion assay; format: cell-based; details: human, dose 10-20 µM
HEK293T [35] = assay: Induction of FLAG tagged Beclin 1- Atg14L interaction in HEK293T cells assessed as increase in endogenous beclin 1 pull down at 10 to 20 uM by coimmunoprecipitation assay; format: cell-based; details: Homo sapiens, dose 10-20 µM
SK-BR-3 [36] = assay: Induction of apoptosis in human SK-BR-3 cells assessed as increase in cell death at 5 uM in presence of Z-VAD-FMK measured after 24 hrs by trypan blue exclusion assay; format: functional, cell-based
SK-BR-3 [37] = assay: Induction of apoptosis in human SK-BR-3 cells assessed as live cells at 1 uM measured after 24 hrs by annexin V-FITC/PI staining based flow cytometry analysis (Rvb= 90.6%); format: functional
SK-BR-3 [38] = assay: Induction of apoptosis in human SK-BR-3 cells assessed as dead cells at 1 uM measured after 24 hrs by annexin V-FITC/PI staining based flow cytometry analysis (Rvb= 5.0%); format: functional
SK-BR-3 [39] = assay: Induction of apoptosis in human SK-BR-3 cells assessed as late apoptotic cells at 1 uM incubated for 24 hrs by flow cytometry with Annexin V-FITC/propidium iodide staining based flow cytometry assay (Rvb= 2.2%); format: functional
SK-BR-3 [40] = assay: Induction of apoptosis in human SK-BR-3 cells assessed as early apoptotic cells at 1 uM measured after 24 hrs by annexin V-FITC/PI staining based flow cytometry analysis (Rvb= 2.2%); format: functional

Question: Which results are given for `CC[C@H](C)[C@H](NC(=O)[C@H](CC(C)C)NC(=O)[C@H](CCCNC(=N)N)NC(=O)[C@H](CCCNC(=N)N)NC(=O)[C@H](CCCNC(=N)N)NC(=O)[C@H](CCCNC(=N)N)NC(=O)[C@H](CCC(N)=O)NC(=O)[C@H](CCCNC(=N)N)NC(=O)[C@H](CCCNC(=N)N)NC(=O)[C@H](CCCCN)NC(=O)[C@H](CCCCN)NC(=O)[C@H](CCCNC(=N)N)NC(=O)CNC(=O)[C@H](Cc1ccc(O)cc1)NC(C)=O)C(=O)N[C@@H](CO)C(=O)N[C@@H](CCC(=O)O)C(=O)N[C@@H](CC(C)C)C(=O)N[C@@H]1CCCCCC/C=C/CCC[C@@H](C(=O)N[C@@H](C)C(N)=O)NC(=O)[C@H](CCCNC(=N)N)NC(=O)[C@H](CCC(N)=O)NC(=O)[C@H](CCCCN)NC(=O)[C@H](CCC(=O)O)NC(=O)[C@H](CCCNC(=N)N)NC(=O)[C@H](CC(=O)O)NC1=O`?
Answer: Activity (SK-BR-3 [1]): 8.1%; Activity (SK-BR-3 [2]): 21.6%; Activity (SK-BR-3 [3]): 0.4%; Activity (SK-BR-3 [4]): 76.1%; Activity (SK-BR-3 [5]): 0.2%; Activity (SK-BR-3 [6]): 8.2%; Activity (SK-BR-3 [7]): 0.8%; Activity (SK-BR-3 [8]): 89%; Activity (SK-BR-3 [9]): 90.6%; Activity (SK-BR-3 [10]): 1.5%; Activity (SK-BR-3 [11]): 1.1%; Activity (SK-BR-3 [12]): 30%; Activity (SK-BR-3 [13]): 0.2%; Activity (SK-BR-3 [14]): 6.1%; Activity (SK-BR-3 [15]): 91%; Activity (SK-BR-3 [16]): 0.8%; Activity (SK-BR-3 [17]): 3.5%

Question: Which results are given for `CC[C@H](C)[C@@H]1NC(=O)[C@H](C(C)C)NC(=O)[C@H](CC(=O)O)NC(=O)[C@H](C(C)C)NC(=O)[C@H](CC(C)C)NC(=O)[C@H](NC(=O)[C@H](CC(N)=O)NC(=O)[C@H](Cc2ccccc2)NC(=O)[C@H](CC(C)C)NC(=O)[C@@H](NC(=O)[C@H](CCCNC(=N)N)NC(=O)[C@H](CCCNC(=N)N)NC(=O)[C@H](CCCNC(=N)N)NC(=O)[C@H](CCC(N)=O)NC(=O)[C@H](CCCNC(=N)N)NC(=O)[C@H](CCCNC(=N)N)NC(=O)[C@H](CCCCN)NC(=O)[C@H](CCCCN)NC(=O)[C@H](CCCNC(=N)N)NC(=O)CNC(=O)[C@H](Cc2ccc(O)cc2)NC(C)=O)C(C)C)CCCCCC/C=C/CCC[C@@H](C(=O)N[C@@H](CCCNC(=N)N)C(=O)N[C@@H](CCCCN)C(=O)N[C@H](C(N)=O)C(C)C)NC(=O)[C@H](CCCCN)NC1=O`?
Answer: Activity (SK-BR-3 [18]): inactive; Activity [19]: 70%; Activity (SK-BR-3 [1]): 29.5%; Activity [20]: 60%; Activity [21]: 50%; IC50 (SK-BR-3 [22]): 7.12 µM; Activity (SK-BR-3 [23]): Active; Activity (SK-BR-3 [3]): 0.6%; Activity (HEK293T [24]): Active; Activity (HEK-293T [25]): inactive; Activity (SK-BR-3 [26]): inactive; Activity (SK-BR-3 [27]): Dose-dependent effect; Activity (HEK-293T [28]): Active; Activity (SK-BR-3 [5]): 2%; Activity (SK-BR-3 [6]): 13.3%; Activity (SK-BR-3 [7]): 1.2%; inhibition (Beclin-1 [29]): Dose-dependent effect; Kd (Beclin-1 [30]): 0.33 µM; Activity (HEK-293T [31]): inactive; Activity (SK-BR-3 [9]): 69%; Activity (HEK293T [32]): Active; Activity (SK-BR-3 [13]): 0.3%; Activity (HEK-293T [33]): Active; Activity (SK-BR-3 [15]): 81.1%; Activity (HEK-293T [34]): Non-Toxic; Activity (HEK293T [35]): inactive

Question: `COc1cccc2c1C(=O)c1c(O)c3c(c(O)c1C2=O)C[C@@](O)(C(=O)CO)C[C@@H]3O[C@H]1C[C@H](N)[C@H](O)[C@H](C)O1` [DOXORUBICIN] was tested. Which Activity (SK-BR-3 [36]) did it give?
Answer: inactive

Question: What about the Activity (SK-BR-3 [37]) of the same molecule?
Answer: 48.1%

Question: What about the Activity (SK-BR-3 [38]) of the same molecule?
Answer: 16.7%

Question: And the Activity (SK-BR-3 [39])?
Answer: 18.7%

Question: What about the Activity (SK-BR-3 [40]) of the same molecule?
Answer: 16.5%
